Structures can show the parent of a compound that is named as a salt. Where two headings read alike, the source gives them in different places.
How the values were obtained:
[1] = type: physicochemical; settings: for resistance to degradation: mild thermal and/or oxidation conditions
Protocol: (§1) In addition, compounds were screened for their ability to readily decompose. Thermal degradation of the thermodynamically-unstable complexing agents was performed by heating the complexing agent in 8M HNO3 at 100° C. The thermal degradation of the compounds were followed by analysis via ^1 H, ^13 C and ^31 P NMR (nuclear magnetic resonance) spectroscopy. Furthermore, the water-solubility of metal ion complexes formed with the inventive complexing agents was determined by using macroquantities of neodymium (III), i.e., Nd(III); thorium (IV), i.e., Th(IV), and uranium (VI), i.e., U(VI).
As a result, autodecomposition is observed when the thermodynamically-unstable complexing agents of the present invention complex with metal ions such as ruthenium or tungsten.
(§2) After synthesis, the thermodynamically-unstable complexing agents of the present invention were tested for thermal stability and susceptibility to oxidation by using ^1 H, ^13 C and ^31 P NMR spectroscopy. Furthermore, the acid dissociation constants, i.e., the pKa values, of the thermodynamically-unstable complexing agents were determined by standard potentiometric titration methods. Finally, the thermodynamically-unstable diphosphonic acid complexing agents of the present invention were analyzed with respect to their ability to complex metal ions and with respect to the aqueous solubility of the resulting metal ion complexes. In addition, the solubility of the uncomplexed thermodynamically-unstable complexing agents was determined by using macro-concentrations of neodymium(III) as a substitute for the trivalent actinides; of thorium(IV), as a substitute for plutonium(IV) and neptunium(IV); of uranyl(VI), as representative for all actinide(VI) ions; of iron(III); and of zirconium. The variables included in this solubility determination were the thermally-unstable complexing agent-to-metal ion ratio, the metal ion concentration, and the pH.
More particularly, ^1 H, ^13 C, and ^31 P NMR spectroscopy was used to elucidate and measure the thermal degradation pathways of the thermally-unstable complexing agents of structural formula I, and to evaluate synthesis efforts. For example, ^31 P NMR spectroscopy is especially valuable in identifying the type of phosphorus compound that is synthesized or the type of phosphorous compound produced upon degradation of the thermally-unstable complexing agent. As a result, ^31 P NMR spectroscopy provides a method of showing that a particular diphosphonic acid compound actually was synthesized.

[2] = Aqueous solubility of metal ion complexes; type: physicochemical
Protocol: as §1, §2

[3] = Acid dissociation constants by potentiometric (pH) titration; type: physicochemical; settings: for pK1 / pK2 / pK3 / pK4: ionic strength 2 M (NaNO3)
Protocol: as §2
In addition, the thermodynamics of protonation of the thermodynamically-unstable complexing agents of the present invention was investigated by potentiometric (pH) titration.
The acidity constants of the thermodynamically-unstable complexing agents are important in the interpretation of metal ion complexation studies, and also serve as a preliminary indicator of metal ion complex stability and conformation. TABLE III summarizes the acid dissocation constants (pKa) of three substituted diphosphonic acids of the present invention. The acid dissociation constants of oxalic and phosphoric acids are included for comparison.
Metal ion complexation with the thermodynamically-unstable complexing agent was investigated using the solvent extraction distribution ratio method. The medium used in all of the protonation and complexation studies was 2.0M NaNO3 /HNO3. The relatively high ionic strength of this medium was utilized in order to minimize interferences due to activity coefficient changes. Data interpretation in all experiments was accomplished by the application of a generic least-squares program written in BASIC. The program applies a Newton-Raphson type iterative process to the data and minimizes the sum of squares of the residuals. The generic program was adapted to several different forms to fit distribution ratio lowering (Do/D) vs. free ligand concentration measurements, and p (average proton number) data from potentiometric titrations.

[4] = 1 M ionic strength, included for comparison; cited from earlier work
Dissolution of Goethite = settings: 0.5M solution, 100 mg Goethite, 80° C., four hours
Source text: One difficulty, is to ensure contact with ions "embedded" in the surface to be decontaminated. This usually requires destruction or dissolution of a surface oxide layer when the surface is metal. […] This oxide of iron is considered one of the more difficult to penetrate.

[5] = Autodecomposition / storage stability at room or ambient temperature; type: physicochemical
[6] = Removal of uranium from groundwater, supported liquid membrane-based process; settings: 60° to 70° C. overnight, strip solution with uranium
Source text: Aqueous solutions of the thermodynamically-unstable complexing agents of the present invention can be used in commercially available supported liquid membrane-based modules to strip metal ion contaminants from aqueous solution. Other devices using a porous membrane separating means can also be used. In general the aqueous solution containing uranium is in contact with one side of the porous membrane and the aqueous solution of the complexing agent is in contact with the other. A known organic extractant is permeated into the pores of the membrane to carry the metal ions from one side to the other. The aqueous solution of the complexing agent strips metal ions from the organic extractant in the pores, driving the extraction "reaction" toward removal of metal ions from the solution to be decontaminated.
Aqueous solutions of the thermodynamically-unstable complexing agent described in this application are useful as stripping agents in a supported liquid membrane-based process for removal of uranium contaminants from groundwater. In this process, groundwater containing 10^-4 M uranium is acidified to pH of 2 by addition of small amounts of sulfuric acid and passed through porous polypropylene hollow fibers in a supported liquid membrane module. The pores of the membrane are filled with 0.1M bis(2,4,4-trimethylpentyl)phosphinic acid in n-dodecane. […]

CC(O)(P(=O)(O)O)P(=O)(O)O [HEDPA, 1-hydroxyethane-1,1-diphosphonic acid, reference compound]
resistance to degradation [1]: ability to resist decomposition
resistance to degradation ([1]; listed as compound VIII): resisted degradation under mild thermal and/or oxidation conditions
aqueous solubility of neodymium (III) complexes ([2]; acid media): only moderate aqueous solubilities
aqueous solubility of thorium (IV) complexes ([2]; acid media): only moderate aqueous solubilities
pK1 [3]: 1.53
pK2 [3]: 2.16
pK3 [3]: 6.18
pK4 [3]: 9.09

O=C(O)C(=O)O [Oxalic Acid, oxalic acid]
pK2 [4]: 3.55

O=C(O)CC(=O)O [malonic acid, reference compound]
Goethite dissolved (Dissolution of Goethite): 8%

O=P(O)(O)C(O)(CO)P(=O)(O)O [DHEDPA, 1,2-dihydroxyethane-1,1-diphosphonic acid]
time to total decomposition ([1]; free acid form, boiling 8M HNO3): about 3 hours
decomposition ([1]; free acid form, hydrogen peroxide at about 60° C.): totally decomposes
acid strength (in words) ([3]; TABLE III comparison): strongest acid
pK1 [3]: 0.91
pK2 [3]: 1.59
pK3 [3]: 5.82
pK4 [3]: 7.97
products of autodecomposition ([5]; free acid form): water, carbon dioxide and phosphoric acid
conversion on previous attempts to isolate free acid ([5]; free acid form, as taught by prior art patent references): essentially immediate conversion
half-life of autodecomposition ([5]; free acid form, room / ambient temperature): about 15 days
products of autodecomposition ([5]; free acid form, listed as compound X): phosphorous and phosphoric acids
stability ([5]; sodium (tetrasodium) salt form, listed as 1,2-dihydroxyethane-1,1-diphosphonic acid): stable indefinitely

O=P(O)(O)C(O)(CO)P(=O)(O)O [tetrasodium salt of compound X]
stability ([5]; sodium (tetrasodium) salt form): stable indefinitely at room temperature

C=C(P(=O)(O)O)P(=O)(O)O [VDPA, vinylidenediphosphonic acid]
Goethite dissolved (Dissolution of Goethite): 40%
decomposition ([1]; aqueous hydrogen peroxide, moderately elevated temperatures): decomposes within hours
decomposition ([1]; boiling nitric acid): decomposes within hours
decomposition by metal catalyzed oxidation ([1]; hydrogen peroxide, metal catalyzed): readily decomposed
decomposition after complexing with a metal ion ([1]; salts of vanadium(V)): can be decomposed by salts of vanadium(V) under very mild conditions
time of destruction by heating [6]: about 5 hours
solubility of metal ion complexes ([2]; acidic media): very soluble
pK1 [3]: 1.41
pK2 [3]: 2.05
pK3 [3]: 5.98
pK4 [3]: 8.58
stability ([5]; free acid form): stable
stability ([5]; sodium (tetrasodium) salt form): stable

O=C(O)C(O)(P(=O)(O)O)P(=O)(O)O [compound VII, carboxyhydroxymethanediphosphonic acid]
products of autodecomposition ([5]; free acid form): carbon dioxide, water and phosphoric acid
half-life of autodecomposition (in words) ([5]; free acid form, room temperature): from about two days to about three days
